The values that follow come from article PMC12741935 (Alzheimer's & Dementia, 2025).

The subject of data set [1] is 14 DIV mouse hippocampal neurons. The data set is described as follows: oAβ-induced spine loss: drebrin-positive spine density in cultured hippocampal neurons. Format: cell-based. The procedure:
For in vitro study, all animal procedures were conducted in accordance with the National Institutes of Health Guide for the Care and Use of Laboratory Animals using protocols approved by the institutional animal care and use committee at Stanford University. Timed pregnant C57BL/6 mice (Strain code: 027) were purchased from Charles River Laboratories and delivered on embryonic day 15 (E15), after which E16 embryos were used for primary hippocampal cultures. Primary embryonic mouse hippocampal neuron cultures were plated on poly‐D‐lysine‐coated (10 µg/mL) glass cover slips at 40,000 to 50,000 cells per well in 12‐well plates (Corning Life Sciences). Cells were seeded in plating medium DMEM/F12 supplemented with 10% fetal bovine serum and 1 × penicillin/streptomycin (PS) for 2 hours. Medium was then changed to B‐27 Plus Neuronal Culture System (Invitrogen) supplemented with PS, and 2 mM glutamine.
Immunofluorescence was performed as described previously.[24] Briefly, cultured hippocampal neurons were fixed in 4% formaldehyde for 20 minutes, permeabilized for 6 minutes in 80% ice‐cold methanol, and incubated with primary antibodies at 4°C overnight. Primary antibodies used were rabbit polyclonal MAP2 antibody for labeling dendrites (1:1000, #8707, Cell Signaling) and mouse monoclonal drebrin antibody for labeling dendritic spines (1:300; Cat#ADI‐NBA‐110, Enzo). Secondary antibodies consisted of donkey antirabbit or antimouse conjugated with either FITC or Cy3 (1:400; Jackson ImmunoResearch Laboratories, Inc.).
The cultured hippocampal neurons were imaged using an oil‐based 63x objective on a Leica Stellaris 5 confocal microscope. The cell nucleus was stained with DAPI and imaged at a wavelength of 405 nm (blue channel), the dendrites stained by MAP2 were imaged at 488 nm wavelength (green channel), and the drebrin‐stained spines were imaged at a wavelength of 561 nm (red channel). Z‐stack images of neurons were acquired at a 1024 × 1024 resolution, a zoom factor of 1.0, and a z‐step size of 0.5 µm. The number of steps for every z‐stack picture of a neuron were determined by the size of the neuron in the z‐plane, to ensure that the entirety of a neuron is captured in the picture. The areas to be imaged were selected systematically, starting from the top‐left region to proceeding to the bottom‐right region of a coverslip. For imaging, preference was given to field of views containing isolated neurons versus clustered neurons.
For quantification of drebrin‐positive spines in vitro, the images were analyzed using Imaris 9.3 software. Each image consisted of one major neuron and the “filaments” option in Imaris was applied to manually trace along the dendrites of every neuron, by placing starting and seed points at the beginning and along the length of the dendrites, respectively. The largest dendrite diameter (i.e., Starting Point) was set at 9.00 µm threshold while the thinnest dendrite diameter (i.e., Seed Point) was set at 1.00 µm threshold. After manually tracing the dendrites, the spines along the dendrites were assessed using the automatic “spine detection” function in Imaris. […] The spine density (number of spines/dendrite length) was then calculated for each neuron. All image acquisition and quantification were performed in a blind manner. For in vitro quantification of dendrite degeneration, Neurolucida (MBF Biosciences) in the manual mode was used to measure the total dendritic length, numbers of dendrites, and dendritic complexity for each neuron.

The nature of data set [2]: Body weight during chronic twice daily oral dosing of aged 5xFAD mice. Format: in vivo. As to conditions: 8- to 9-month-old 5xFAD, twice daily oral administration, within first 31 days; seen with both NVS-PAK1-1 and vehicle. The procedure:
Serial blood was collected from n = 3 per treatment group at 0.5, 1, 2, and 4 hours post dose; with terminal blood and brain collected at 4 hours post dose. A staggered cohort of n = 3 per treatment group were assigned to serial blood collections at 0.5, 1, 2, and 8 hours post dose with terminal blood and brain collected at 4 and 24 hours post dose. Informed by exposure data from the initial PK/PD study, a subsequent chronic PK/PD study was designed to evaluate twice daily treatment of 100 mg/kg (PO) in female and male 5xFAD mice compared to age‐ and sex‐matched vehicle‐treated 5xFAD and vehicle‐treated WT littermate controls (Table S2 in supporting information). Terminal blood and brain was collected at 4 hours after the final dose. […] All in vivo target engagement and PK/PD studies were conducted under blinded conditions for age, genotype, and treatment, and the blind was maintained until after analyses were conducted.
Drug concentrations were prepared immediately before dosing each day. The dose volume was delivered at 10 mL/kg based on each subject's daily weight collected just prior to the morning dose and administered via PO. For the chronic PD study, twice daily dosing (BID) was conducted between 7:00 and 9:00 am each morning and 3:00 to 5:00 pm each evening with the same day's formulation stored at 4°C between dosing intervals.

For `CC(C)NC(=O)N1CC[C@H](NC2=Nc3cc(F)ccc3N(CC(F)F)c3ccc(Cl)cc32)C1` [NVS‐PAK1‐1, (S)‐3‐([2‐chloro‐5‐(2,2‐difluoroethyl)‐8‐fluoro‐5H‐dibenzo[b,e][1,4]diazepin‐11‐yl]amino)‐N‐isopropylpyrrolidine‐1‐carboxamide], in data set [1] (Mus musculus, Hippocampal neuron, 24 h, oAβ 1 µM, 24 h, 14 DIV neurons, read-out: EC50, concentration at which NVS-PAK1-1 reduced oAβ-induced loss of spine density by 50%), the EC50 came to 2 nM. Moreover, the “drebrin-stained spine density (spine counts per µm of dendritic length)” value in data set [1] (oAβ 1 µM + inhibitor 24 h vs oAβ alone, NVS-PAK1-1 10 nM, NVS-PAK1-C 10 nM, AZ13705339 1 nM, G5555 5 nM) is “significantly higher spine counts”. In data set [2], the weight loss entry is given as “≈ 20%”.
